The target of series [1] is T1, ID1 (Homo sapiens, UniProt P41134).
T1 sequence (P41134 1-155): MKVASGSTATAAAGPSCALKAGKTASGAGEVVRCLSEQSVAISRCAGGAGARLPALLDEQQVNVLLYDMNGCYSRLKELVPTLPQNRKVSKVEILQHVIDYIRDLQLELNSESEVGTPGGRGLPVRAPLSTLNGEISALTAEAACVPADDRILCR
The series is described as follows: Knockdown of Id1 in TFK1 cell cultures. Type of series: cell-based. Set-up: endogenous in cells; host or cells: TFK1. Particulars: TFK1, FIG. 21. The text has this:
Following the methods described herein (see, e.g., Examples 12-13), AGX-A and AGX51 were compared for their ability to mediate Id knockdown in cell cultures. FIG. 21 illustrates side-by-side comparative effects of AGX51 and AGX-A for knockdown of Id1 in TFK1 cell cultures, and FIG. 22 illustrates side-by-side comparative effects of AGX51 and AGX-A for knockdown of Id3 in TFK1 cell cultures.

For series [2], the system named is ID1, ID2, ID3 and ID4. The series is described as follows: Western blot for ID1-ID4 in HCT116 cells. Type of series: cell-based. To be noted: 40 μM, 0-48 hours. On the procedure: Immunoblotting. For immunoblotting, cells were collected by trypsinization, washed with PBS and lysed in homogenization buffer (0.3 M sucrose, 10 mM Tris (pH 8.0), 400 mM sodium chloride, 3 mM magnesium chloride, 0.5% NP40/IGEPAL, 100 μg/mL Aprotinin+Protease inhibitor cocktail (Roche #11 836 153 001). Proteins were separated by SDS-PAGE, transferred to a membrane (LI-COR), probed with primary antibodies overnight at 4° C., and probed with secondary antibodies (LI-COR) for 1-2 hours at room temperature. Proteins were visualized using the LI-COR Odyssey Infrared Imaging detection system. The following primary antibodies were used Id1, Id2, Id3, Id4 (195-14, 9-2-8, 17-3, 82-12, respectively, all from Biocheck), Cyclin D1 (2978, Cell Signaling), Actin (A2066, Sigma), Tubulin (T4026, Sigma). Western blot quantification was carried out using channel 700 and channel 800 intensity data from Odyssey application software version 3.0.30 (LI-COR), subtracting blank values and normalizing to Tubulin.
The activity of AGX51 was tested on primary human umbilical vein endothelial cells (HUVECs) and the HCT116 colorectal cancer cell line, two cell types with different ID1-4 expression profiles. […] The effects of AGX51 on ID3 loss in HUVECs was diminished in the 20-40 μM range compared with ID1, consistent with the weaker perturbation observed in the CD spectra.
(In western blotting, separated proteins are transferred to a membrane and probed.)

Series [3] can be described thus: 14-day toxicity study, i.p. Type of series: in vivo. To be noted: 60 mg/kg bid i.p., 14 days. How it is done:
Toxicity analyses. To assess for toxicity, female athymic nude mice (Envigo), age 6-8 weeks, were dosed i.p. with either a control vehicle (70% DMSO in water) or AGX51 at 60 mg/kg twice daily for 14 consecutive days. Mice were sacrificed 24 hours after the last test administration. Gross and complete necropsy, along with clinical pathology analysis was conducted on all mice. Clinical Chemistry parameters measured were: BUN, Creatine, ALP, ALT, AST, GGT, Bilirubin, Total Protein, Albumin, Globulin, Phosphorus, Glucose, Cholesterol, Phosphorus, Calcium, Sodium, Potassium, Chloride. Hematology parameters measured were: white blood cells (lymphocytes, Monocytes, Eosinophils, Basophils, Neutrophils), red blood cells, Hemoglobin, Hematocrit, MCV, MCH, MCHC, RDW, Platelets. Organs/Tissues analyzed were: Lung, heart, thymus, kidneys, liver, spleen, gall bladder, pancreas, duodenum, jejunum, ileum, cecum, colon, bone marrow, femur, tibia, sternum, brain, eyes, ears, nasal and oral cavities, teeth, mesenteric and tracheal lymph nodes.

Series [4] has as its system PDX-BR11. The series can be described thus: MTT assay, PDX-BR11. To be noted: 24 h, PDX-BR11, PDX cell line, read-out: IC50 value after 24 hours of treatment. Type of series: cell-based. From the text: The 4T1 murine mammary tumor cell line and nine breast cancer cell lines representing the major breast cancer subtypes (ER+, HER2+, and TNBC) including MDA-MB-157, MDA-MB-436, MDA-MB-231, MDA-MB-453, MDA-MB-361, BT-474, SK-BR-3, MCF-7 and T47-D will be grown in RPMI or DMEM (Dulbecco's Modified Eagle Medium) media supplemented with 10% FBS (fetal bovine serum), 1% penicillin-streptomycin and 1% L-Glutamine. Patient derived xenograft cell lines BR7, BR11, and IBT will be established directly from breast cancer bone metastases specimens surgically resected from patients with informed consent. BR7 and BR11 specimens will be obtained from ER positive (HER2 negative and PR negative) metastatic breast cancer patients, while the IBT specimen will be obtained from a metastatic, triple negative breast cancer patient. Fresh tumor tissues will be quickly washed with ice cold PBS and minced into about 1-3 mm pieces in MEM medium (without FBS) using sterile razor blades. […] The cells will be treated with either 100 μM DMSO, AGX51, or a compound of the present technology such as AGX-A. The cell morphology and growth will be monitored daily for 1 week by microscopy for changes in morphology or cell death. […] Absorbance will then measured at 570 nm using a plate reader (Synergy 2, BioTek). […]
A general note: Formazan colour is commonly taken as a measure of viable cells.

What is called IC50 is the midpoint of a concentration-inhibition curve.

Turning to `COc1ccccc1C(CCNCc1ccccc1)c1ccc(OC(C)C)cc1` (stereo not drawn) [AGX-A, N-benzyl-3-(4-isopropoxyphenyl)-3-(2-methoxyphenyl)propan-1-anine], the “Id1 knockdown potency vs AGX51” value in series [1] was “superior anti-Id1 and anti-Id3 potency compared to AGX51”.
With `CCC(=O)N(CCC(c1ccc2c(c1)OCO2)c1ccccc1OC)Cc1ccccc1` (racemic) [AGX51, N-(3-(benzo[d][1,3]dioxol-5-yl)-3-(2-methoxyphenyl)propyl)-N-benzylpropionamide], the ID protein levels result in series [2] is “reduced levels of ID1, 1D2, ID3 and ID4”. Moreover, in series [3], the “clinical chemistry parameters and hematology” value is “within normal limits”; the “gross necropsy and histopathological evaluation of all major organs” value is listed as “No abnormal findings”; the weight loss entry is on record as “no significant weight loss”. Besides, in series [4], the half-maximal inhibitory concentration (IC50) amounted to 18.6 µM.

These data come from US20220356163A1, “SMALL MOLECULE INHIBITORS OF Id PROTEINS” (MEMORIAL SLOAN KETTERING CANCER CENTER, priority 2019, published 2022).
